# Values of other authors in patent US20080069871A1, “H[…] DETERRENT DELIVERY SYSTEM” (priority 2006, published 2008).
# Settings: stated as reason for use as model drug
structure (smiles),measurement,value
"Cc1ncc([N+](=O)[O-])n1CCO [metronidazole, Metronidazole]",solubility in water and aqueous ethanol solutions,highly soluble
